What all share (format): cell-based
For experiment [1], the system named is HT-29 (monolayer culture of a human colon carcinoma). Put plainly: Cytotoxic activity screening, HT-29 cells. The note with it: HT-29, 72 h, three days of incubation, Crystal Violet, approximate IC50. On the procedure: (§1) Cell Cultures. Cells were maintained in logarithmic phase of growth in Eagle's Minimum Essential Medium, with Earle's Balanced Salts, with 2.0 mM L-glutamine, with non-essential amino acids, without sodium bicarbonate (EMEM/neaa); supplemented with 10% Fetal Calf Serum (FCS), 10^−2 M sodium bicarbonate and 0.1 g/l penicillin-G+streptomycin sulfate.
(§2) A simple screening procedure has been carried out to determine and compare the antitumour activity of these compounds, using an adapted form of the method described by Bergeron et al (1984). The tumour cell line employed have been P-388 (suspension culture of a lymphoid neoplasm from DBA/2 mouse), A-549 (monolayer culture of a human lung carcinoma), HT-29 (monolayer culture of a human colon carcinoma) and MEL-28 (monolayer culture of a human melanoma).
(§3) A-549, HT-29 and MEL-28 were seeded into 16 mm wells at 2×10^4 cells per well in 1 ml aliquots of MEM 10FCS containing the indicated concentration of drug. A separate set of cultures without drug was seeded as control growth to ensure that cells remained in exponential phase of growth. All determinations were carried out in duplicate. After three days of incubation at 37° C., 10% CO2 in a 98% humid atmosphere, the wells were stained with 0.1% Crystal Violet. An approximately IC50 was determined by comparing the growth in wells with drug to the growth in wells control.

The subject of experiment [2] is A-549 (monolayer culture of a human lung carcinoma). The experiment in a line: Cytotoxic activity screening, A-549 cells. The note with it: A549, 72 h, three days of incubation, Crystal Violet, approximate IC50. On the procedure:
as §1, §2, §3

The subject of another experiment is DU-145. Put plainly: Cytotoxic activity screening, DU-145 cells. As to conditions: Homo sapiens, DU-145, DU-145 cells.
Experiment [3] relates to MEL-28 (monolayer culture of a human melanoma). The experiment in a line: Cytotoxic activity screening, MEL-28 cells. As to conditions: SK-MEL-28, 72 h, three days of incubation, Crystal Violet, approximate IC50. On the procedure: as §1, §2, §3
For experiment [4], the system named is P-388 (suspension culture of a lymphoid neoplasm from DBA/2 mouse). Put plainly: Cytotoxic activity screening, P-388 cells. As to conditions: P388, 72 h, three days of incubation, approximate IC50. Here is the method: as §1, §2
P-388 cell were seeded into 16 mm wells at 1×10^4 cells per well in 1 ml aliquots of MEM 5FCS containing the indicated concentration of drug. A separate set of cultures without drug was seeded as control growth to ensure that cells remained in exponential phase of growth. All determinations were carried out in duplicate.

In US7524956B2, “Hemisynthetic method and new compounds” (Pharma Mar, S.A., priority 1999, dated 2009) one finds IC50 data, which are given here for three compounds.

Molecules are shown by their SMILES.

One may read the IC50 as the concentration needed to halve the response being measured. Lower therefore signals inhibition by little substance.

Regarding `CCCCCCCCCC(=O)NC[C@H]1c2c(c(OC(C)=O)c(C)c3c2OCO3)CC2[C@H]3c4c(cc(C)c(OC)c4O)C[C@@H]([C@H](C#N)N21)N3C` (stereo partly drawn), the concentration for half-maximal inhibition (IC50) (in experiment [1]; in experiment [2]; in the experiment with DU-145; in experiment [3]; in experiment [4]) was 0.007 µM throughout.
As for `CCCC(=O)N[C@@H](C)C(=O)NC[C@H]1c2c(c(OC(C)=O)c(C)c3c2OCO3)CC2[C@H]3c4c(cc(C)c(OC)c4O)C[C@@H]([C@H](C#N)N21)N3C` (stereo partly drawn), the IC50 in experiment [1] was 0.0005 µM; in experiment [2] it was 0.001 µM; with DU-145 it was 0.001 µM; in experiment [3] it was 0.0005 µM; in experiment [4] it was 0.001 µM.
Turning to `COc1c(C)cc2c(c1O)[C@@H]1C3Cc4c(OC(C)=O)c(C)c5c(c4[C@H](CNC(=O)/C=C/c4ccccc4)N3[C@@H](C#N)[C@H](C2)N1C)OCO5` (stereo partly drawn), the IC50 (in experiment [1]; in experiment [2]; in the experiment on DU-145; in experiment [3]; in experiment [4]) was 0.0001 µM in each case.
